Measured values from patent publication US6358885B1, “Substituted phenylheterocyclic herbicides” (Mississippi State University, priority 1992, dated 2002).

Experiments:
[1] = test system: cotton; assay: Test B preemergence/postemergence greenhouse plant response rating 0 to 10; type: in vivo, Gossypium hirsutum; conditions: for Plant response rating, Cotton: 0 to 10 scale
Method in brief: (§1)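 Both application timings were run together: seeds got compound preemergence, and established seedlings (two to eighteen cm) got it postemergence. Non-phytotoxic solvent carried the chemical. Ratings are visual, versus controls, at twelve to sixteen days.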

[2] = test system: rape; assay: Test C preemergence/postemergence greenhouse plant response rating 0 to 100; type: in vivo, Brassica napus; conditions: POSTEMERGENCE; for Plant response rating, Rape: 62 g/ha, 0 to 100 scale
Description: (§2) The compounds evaluated in this test were formulated in a non-phytoxic solvent and applied to the soil surface before plant seedlings emerged (preemergence application), to water that covered the soil surface (flood application), and to plants that were in the one-to-four leaf stage (postemergence application). A sandy loam soil was used for the preemergence and postemergence tests, while a silt loam soil was used in the flood test. Water depth was approximately 2.5 cm for the flood test and was maintained at this level for the duration of the test. Plant species in the preemergence and postemergence tests consisted of barley (Hordeum vulgare), bedstraw (Galium aparine), blackgrass (Alopecurus myosuroides), chickweed (Stellaria media), corn (Zea mays), cotton (Gossypium hirsutum), crabgrass (Digitaria sanguinalis), downy brome (Bromus tectorum), giant foxtail (Setaria faberii), lambsquarters (Chenopodium album), morningglory (Ipomoea hederacea), pigweed ([…]), rape (Brassica napus), ryegrass (Lolium multiflorum), sorghum (Sorghum bicolor), soybean (Glycine max), speedwell (Veronica persica), sugar beet (Beta vulgaris), velvetleaf (Abutilon theophrasti), wheat (Triticum aestivum), wild buckwheat (Polygonum convolvulus), and wild oat (Avena fatua). All plant species were planted one day before application of the compound for the preemergence portion-of this test. Plantings of these species were adjusted to produce plants of appropriate size for the post-emergence portion of the test. […] All plant species were grown using normal greenhouse practices. Visual evaluations of injury expressed on treated plants, when compared to untreated controls, were recorded approximately fourteen to twenty one days after application of the test compound. […] A dash (-) response means no test result.

[3] = test system: velvetleaf; assay: Test B preemergence/postemergence greenhouse plant response rating 0 to 10; type: in vivo, Abutilon theophrasti; conditions: 0 to 10 scale
Method in brief: as §1

[4] = test system: wild oat; assay: Test C preemergence/postemergence greenhouse plant response rating 0 to 100; type: in vivo, Avena fatua; conditions: POSTEMERGENCE; for Plant response rating, Wild oat: 62 g/ha, 0 to 100 scale
Description: as §2

[5] = test system: morningglory; assay: Test B preemergence/postemergence greenhouse plant response rating 0 to 10; type: in vivo, Ipomoea hederacea; conditions: 0 to 10 scale
Method in brief: as §1

[6] = test system: wheat; assay: as above; type: in vivo, Triticum aestivum; conditions: 0 to 10 scale
Method in brief: as §1

[7] = test system: blackgrass; assay: Test C preemergence/postemergence greenhouse plant response rating 0 to 100; type: in vivo, Alopecurus myosuroides; conditions: POSTEMERGENCE; for Plant response rating, Blackgrass: 62 g/ha, 0 to 100 scale
Description: as §2

[8] = test system: barnyardgrass; assay: Test B preemergence/postemergence greenhouse plant response rating 0 to 10; type: in vivo, Echinochloa crus-galli; conditions: for Plant response rating, Barnyardgrass: 0 to 10 scale
Method in brief: as §1

[9] = test system: crabgrass; assay: Test C preemergence/postemergence greenhouse plant response rating 0 to 100; type: in vivo, Digitaria sanguinalis; conditions: POSTEMERGENCE; for Plant response rating, Crabgrass: 62 g/ha, 0 to 100 scale
Description: as §2

[10] = test system: bedstraw; assay: as above; type: in vivo, Galium aparine; conditions: POSTEMERGENCE; for Plant response rating, Bedstraw: 62 g/ha, 0 to 100 scale
Description: as §2

[11] = test system: giant foxtail; assay: as above; type: in vivo, Setaria faberii; conditions: POSTEMERGENCE; for Plant response rating, Giant foxtail: 62 g/ha, 0 to 100 scale
Description: as §2

[12] = test system: wheat; assay: as above; type: in vivo, Triticum aestivum; conditions: POSTEMERGENCE; for Plant response rating, Wheat: 62 g/ha, 0 to 100 scale
Description: as §2

CCCN1C(=O)COc2cc(F)c(-c3nn4c(c3Cl)CCCC4)cc21 [Compound 32]
Plant response rating, Cotton ([1]; POSTEMERGENCE, Rate 10 g/ha): 10 | Plant response rating (0 to 10 scale), Cotton ([1]; POSTEMERGENCE, Rate 50 g/ha): 10 | Plant response rating, Cotton ([1]; PREEMERGENCE, Rate 10 g/ha): 0 | Plant response rating, Cotton ([1]; PREEMERGENCE, Rate 50 g/ha): 8 | Plant response rating, Rape [2]: 100 | Plant response rating (0 to 100), Rape ([2]; Rate 1 g/ha): 60 | Plant response rating (0 to 100), Rape ([2]; Rate 4 g/ha): 85 | Plant response rating (0 to 100), Rape ([2]; Rate 16 g/ha): 95 | Plant response rating, Velvetleaf ([3]; POSTEMERGENCE, Rate 10 g/ha): 10 | Plant response rating, Velvetleaf ([3]; POSTEMERGENCE, Rate 50 g/ha): 10 | Plant response rating, Velvetleaf ([3]; PREEMERGENCE, Rate 50 g/ha): 10 | Plant response rating, Wild oat [4]: 50 | Plant response rating (0 to 100), Wild oat ([4]; Rate 1 g/ha): 20 | Plant response rating (0 to 100), Wild oat ([4]; Rate 4 g/ha): 30 | Plant response rating (0 to 100), Wild oat ([4]; Rate 16 g/ha): 30 | Plant response rating, Morningglory ([5]; POSTEMERGENCE, Rate 10 g/ha): 10 | Plant response rating, Morningglory ([5]; POSTEMERGENCE, Rate 50 g/ha): 10 | Plant response rating, Morningglory ([5]; PREEMERGENCE, Rate 50 g/ha): 2 | Plant response rating, Wheat ([6]; POSTEMERGENCE, Rate 10 g/ha): 5 | Plant response rating, Wheat ([6]; POSTEMERGENCE, Rate 50 g/ha): 5 | Plant response rating, Wheat ([6]; PREEMERGENCE, Rate 50 g/ha): 0 | Plant response rating, Blackgrass [7]: 50 | Plant response rating (0 to 100), Blackgrass ([7]; Rate 1 g/ha): 10 | Plant response rating (0 to 100), Blackgrass ([7]; Rate 4 g/ha): 30 | Plant response rating (0 to 100), Blackgrass ([7]; Rate 16 g/ha): 30 | Plant response rating, Barnyardgrass ([8]; POSTEMERGENCE, Rate 10 g/ha): 3 | Plant response rating (0 to 10 scale), Barnyardgrass ([8]; POSTEMERGENCE, Rate 50 g/ha): 5 | Plant response rating, Barnyardgrass ([8]; PREEMERGENCE, Rate 10 g/ha): 0 | Plant response rating, Barnyardgrass ([8]; PREEMERGENCE, Rate 50 g/ha): 1 | Plant response rating, Crabgrass [9]: 40 | Plant response rating (0 to 100), Crabgrass ([9]; Rate 1 g/ha): 10 | Plant response rating (0 to 100), Crabgrass ([9]; Rate 4 g/ha): 20 | Plant response rating (0 to 100), Crabgrass ([9]; Rate 16 g/ha): 30 | Plant response rating, Bedstraw [10]: 100 | Plant response rating (0 to 100), Bedstraw ([10]; Rate 1 g/ha): 85 | Plant response rating (0 to 100), Bedstraw ([10]; Rate 4 g/ha): 90 | Plant response rating (0 to 100), Bedstraw ([10]; Rate 16 g/ha): 100 | Plant response rating, Giant foxtail [11]: 70 | Plant response rating (0 to 100), Giant foxtail ([11]; Rate 1 g/ha): 20 | Plant response rating (0 to 100), Giant foxtail ([11]; Rate 4 g/ha): 30 | Plant response rating (0 to 100), Giant foxtail ([11]; Rate 16 g/ha): 50 | Plant response rating, Wheat [12]: 50 | Plant response rating (0 to 100), Wheat ([12]; Rate 1 g/ha): 10 | Plant response rating (0 to 100), Wheat ([12]; Rate 4 g/ha): 30 | Plant response rating (0 to 100), Wheat ([12]; Rate 16 g/ha): 30

C=CCN1C(=O)COc2cc(F)c(-c3nn4c(c3Cl)CCCC4)cc21 [Compound 33]
Plant response rating, Cotton ([1]; POSTEMERGENCE, Rate 10 g/ha): 10 | Plant response rating, Cotton ([1]; POSTEMERGENCE, Rate 50 g/ha): 10 | Plant response rating, Cotton ([1]; PREEMERGENCE, Rate 10 g/ha): 0 | Plant response rating, Cotton ([1]; PREEMERGENCE, Rate 50 g/ha): 0 | Plant response rating, Rape [2]: 100 | Plant response rating (0 to 100), Rape ([2]; Rate 1 g/ha): 100 | Plant response rating (0 to 100), Rape ([2]; Rate 4 g/ha): 100 | Plant response rating (0 to 100), Rape ([2]; Rate 16 g/ha): 100 | Plant response rating, Velvetleaf ([3]; POSTEMERGENCE, Rate 10 g/ha): 10 | Plant response rating, Velvetleaf ([3]; POSTEMERGENCE, Rate 50 g/ha): 9 | Plant response rating, Velvetleaf ([3]; PREEMERGENCE, Rate 50 g/ha): 9 | Plant response rating, Wild oat [4]: 60 | Plant response rating (0 to 100), Wild oat ([4]; Rate 1 g/ha): 30 | Plant response rating (0 to 100), Wild oat ([4]; Rate 4 g/ha): 40 | Plant response rating (0 to 100), Wild oat ([4]; Rate 16 g/ha): 50 | Plant response rating, Morningglory ([5]; POSTEMERGENCE, Rate 10 g/ha): 9 | Plant response rating, Morningglory ([5]; POSTEMERGENCE, Rate 50 g/ha): 10 | Plant response rating, Morningglory ([5]; PREEMERGENCE, Rate 50 g/ha): 10 | Plant response rating, Wheat ([6]; POSTEMERGENCE, Rate 10 g/ha): 3 | Plant response rating, Wheat ([6]; POSTEMERGENCE, Rate 50 g/ha): 5 | Plant response rating, Wheat ([6]; PREEMERGENCE, Rate 50 g/ha): 2 | Plant response rating, Blackgrass [7]: 60 | Plant response rating (0 to 100), Blackgrass ([7]; Rate 1 g/ha): 30 | Plant response rating (0 to 100), Blackgrass ([7]; Rate 4 g/ha): 50 | Plant response rating (0 to 100), Blackgrass ([7]; Rate 16 g/ha): 50 | Plant response rating, Barnyardgrass ([8]; POSTEMERGENCE, Rate 10 g/ha): 4 | Plant response rating, Barnyardgrass ([8]; POSTEMERGENCE, Rate 50 g/ha): 7 | Plant response rating, Barnyardgrass ([8]; PREEMERGENCE, Rate 10 g/ha): 2 | Plant response rating, Barnyardgrass ([8]; PREEMERGENCE, Rate 50 g/ha): 3 | Plant response rating, Crabgrass [9]: 20 | Plant response rating (0 to 100), Crabgrass ([9]; Rate 1 g/ha): 0 | Plant response rating (0 to 100), Crabgrass ([9]; Rate 4 g/ha): 0 | Plant response rating (0 to 100), Crabgrass ([9]; Rate 16 g/ha): 0 | Plant response rating, Bedstraw [10]: 100 | Plant response rating (0 to 100), Bedstraw ([10]; Rate 1 g/ha): 80 | Plant response rating (0 to 100), Bedstraw ([10]; Rate 4 g/ha): 90 | Plant response rating (0 to 100), Bedstraw ([10]; Rate 16 g/ha): 100 | Plant response rating, Giant foxtail [11]: 70 | Plant response rating (0 to 100), Giant foxtail ([11]; Rate 1 g/ha): 0 | Plant response rating (0 to 100), Giant foxtail ([11]; Rate 4 g/ha): 0 | Plant response rating (0 to 100), Giant foxtail ([11]; Rate 16 g/ha): 20 | Plant response rating, Wheat [12]: 60 | Plant response rating (0 to 100), Wheat ([12]; Rate 1 g/ha): 30 | Plant response rating (0 to 100), Wheat ([12]; Rate 4 g/ha): 40 | Plant response rating (0 to 100), Wheat ([12]; Rate 16 g/ha): 50
